Measurements taken from patent publication US10000476B2, “Pyridone derivative, pharmaceutical containing the same and methods of use thereof” (KAKEN PHARMACEUTICAL CO., LTD., priority 2011, dated 2018).

Legend:
human MMP-9 = human MMP-9 (Homo sapiens (Human), UniProt P14780); experiment: MMP-9 inhibition test; format: biochemical; conditions: read-out: MMPs IC50 MMP-9
Method: (§1) MMP inhibition tests can be carried out, for example, using a fluorescent synthetic substrate based on the methods described in Bickett et al. (D. Mark Bickett et al., Anal. Biochem., 1993, 212, 58-64) and Nagase et al. (H. Nagase et al., J. Biol. Chem., 1994, 269, 20952-20957). The method for each MMP inhibition test is shown below.
90 μL (11 ng) of human MMP-9 (Calbiochem #444231) was mixed with 10 μL of 10 mM APMA, and activated by reacting at 37° C. for 2 hours. 10 μL of the resultant enzyme solution was diluted to 90 μL with an assay buffer A. The mixture was added to 90 μL of a 20 μM fluorescent substrate (Dnp-Pro-Cha-Gly-Cys(Me)-His-Ala-Lys(Nma)-NH2) (SEQ ID NO: 2) prepared with an assay buffer B, and reacted at 37° C. for 4 hours. Enzyme activity was then determined by measuring with a fluorescence intensity meter (Labsystems, Fluoroskan Ascent) at an excitation wavelength of 355 nm and a measurement wavelength of 460 nm.
(§2) From the enzyme activity in the presence or the absence of the test substance, the inhibition rate was determined, and the 50% inhibitiory concentration (IC50) of the test substance was calculated.

human MMP-14 = human MMP-14 (Homo sapiens (Human), UniProt P50281); experiment: MMP-14 inhibition test; format: biochemical; conditions: read-out: MMPs IC50 MMP-14
Method: as §1
90 μL (1.9 ng) of human MMP-14 (Calbiochem #475935) prepared with an assay buffer A was added to 90 μL of a 20 μM fluorescent substrate (Dnp-Pro-Cha-Gly-Cys(Me)-His-Ala-Lys(Nma)-NH2) (SEQ ID NO: 2) prepared with an assay buffer B, and reacted at 37° C. for 5 hours. Enzyme activity was then determined by measuring with a fluorescence intensity meter (Labsystems, Fluoroskan Ascent) at an excitation wavelength of 355 nm and a measurement wavelength of 460 nm.
as §2

human MMP-1 = human MMP-1 (Homo sapiens (Human), UniProt P03956); experiment: MMP-1 inhibition test; format: biochemical; conditions: read-out: MMPs IC50 MMP-1
Method: as §1
180 μL (100 ng) of human MMP-1 (Calbiochem #444208) was mixed with 20 μL of 10 mM p-amino phenyl mercuric acetate (APMA), and activated by reacting at 37° C. for 1 hour. 20 μL of the resultant enzyme solution was diluted to 90 μL with an assay buffer A. The mixture was added to 90 μL of a 20 μM fluorescent substrate (Dnp-Pro-Cha(β-cyclohexylalanyl)-Gly-Cys(Me)-His-Ala-Lys(Nma)-NH2) (SEQ ID NO: 2) prepared with an assay buffer B, and reacted at 37° C. for 5 hours. Enzyme activity was then determined by measuring with a fluorescence intensity meter (Labsystems, Fluoroskan Ascent) at an excitation wavelength of 355 nm and a measurement wavelength of 460 nm.
as §2

[1] = system: auricular oedema induced by TPA in BALB/c mice; experiment: Inhibition test of auricular oedema induced by single application of TPA in mouse; format: in vivo; conditions: 1 w/v % solution applied topically to ear 1 hour before TPA, auricle thickness 6 hours after TPA, read-out: Auricular oedema inhibition rate (%)
Method: Inhibition Test of Auricular Oedema Induced by Single Application of TPA (12-O-tetradecanoylphorbol-13-acetate) in Mouse (In Vivo Efficacy Test Based on TNF-α-Related Cutaneous Inflammation)
Auricular oedema was induced by applying 54 μmol/L TPA-acetone solution on both the inner and outer sides of the left ear of BALB/c mice (application volume of 54 μmol/L TPA-acetone solution is 10 μL for each side of the left ear (i.e. 1.08 nmol TPA/auricle)). For a non-induced group, acetone was similarly applied instead of the 54 μmol/L TPA-acetone solution. The test substance was dissolved and prepared in a 1 w/v % solution of acetone containing 10 vol % DMSO (topical administration vehicle), then the test solution was applied onto both the inner and outer sides of the left ear of the mice (application volume of this test solution is 10 μL for each side of the left ear) 1 hour before the TPA application. For a control group, the topical administration vehicle was similarly applied instead of the test substance solution. For an etanercept group, 0.2 mL of a 5 mg/mL etanercept solution was intravenously administered (1 mg/mouse) the day before TPA application and 1.5 hours before TPA application. For a human IgG (hIgG) group (etanercept control group), 0.2 mL of a 5 mg/mL hIgG solution was intravenously administered (1 mg/mouse). Auricle thickness was measured under ether anesthesia the day before TPA application and 6 hours after TPA application for evaluation of the auricular oedema inhibition effect of the test substance based on the increase in auricle thickness as an index.
The auricular oedema inhibition rate (%) of the test substance was calculated based on the following formula using (A) the average value of the increase in auricular thickness of the group administered with the test substance, (B) the average value of the increase in auricular thickness of the non-induced group, and (C) the average value of the increase in auricular thickness of the control group. […]

human MMP-1, sequence (P03956 100-469): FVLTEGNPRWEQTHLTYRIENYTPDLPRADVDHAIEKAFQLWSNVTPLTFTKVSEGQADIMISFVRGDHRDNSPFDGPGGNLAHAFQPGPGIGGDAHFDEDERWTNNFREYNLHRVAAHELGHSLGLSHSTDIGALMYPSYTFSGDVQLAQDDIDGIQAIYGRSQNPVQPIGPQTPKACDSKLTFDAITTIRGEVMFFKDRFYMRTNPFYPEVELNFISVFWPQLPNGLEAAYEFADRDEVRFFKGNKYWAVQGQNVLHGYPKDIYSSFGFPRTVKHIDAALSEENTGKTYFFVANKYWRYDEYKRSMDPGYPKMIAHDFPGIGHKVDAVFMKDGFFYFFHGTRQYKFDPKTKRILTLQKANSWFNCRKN
human MMP-9, sequence (P14780 107-707): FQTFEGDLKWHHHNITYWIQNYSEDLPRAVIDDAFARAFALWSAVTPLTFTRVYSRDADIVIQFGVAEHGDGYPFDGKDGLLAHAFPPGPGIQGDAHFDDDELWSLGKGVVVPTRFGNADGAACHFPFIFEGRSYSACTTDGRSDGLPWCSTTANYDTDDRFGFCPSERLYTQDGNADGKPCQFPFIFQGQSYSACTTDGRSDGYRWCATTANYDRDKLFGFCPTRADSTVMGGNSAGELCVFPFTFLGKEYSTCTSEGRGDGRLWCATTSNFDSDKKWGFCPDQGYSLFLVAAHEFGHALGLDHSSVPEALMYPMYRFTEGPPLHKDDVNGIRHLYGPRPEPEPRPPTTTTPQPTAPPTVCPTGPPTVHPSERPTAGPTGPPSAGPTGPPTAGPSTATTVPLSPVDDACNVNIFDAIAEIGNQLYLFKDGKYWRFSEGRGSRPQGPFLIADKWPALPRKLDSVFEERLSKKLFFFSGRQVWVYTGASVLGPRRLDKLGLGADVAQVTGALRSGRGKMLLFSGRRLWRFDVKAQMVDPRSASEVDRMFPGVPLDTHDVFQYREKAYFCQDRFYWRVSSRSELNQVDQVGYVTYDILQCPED

Cc1cccn(CC2(c3ccccc3)NC(=O)NC2=O)c1=O (stereo not shown) [Compound I-1, 5-[(3-methyl-2-oxopyridin-1(2H)-yl)methyl]-5-phenyl-imidazolidine-2,4-dione]
IC50 (human MMP-9): > 100 µM
IC50 (human MMP-14): 31 µM
IC50 (human MMP-1): > 100 µM

Cc1cccn(CC2(c3ccc(Oc4ccccc4)cc3)NC(=O)NC2=O)c1=O (stereo not shown) [Compound I-9, 5-[(3-methyl-2-oxopyridin-1(2H)-yl)methyl]-5-(4-phenoxyphenyl)imidazolidine-2,4-dione]
inhibition in vivo at 10000 µg/mL [1]: 66%
IC50 (human MMP-9): > 100 µM
IC50 (human MMP-14): 12 µM
IC50 (human MMP-1): > 100 µM

Cc1cccn(CC2(c3ccc(F)c(F)c3)NC(=O)NC2=O)c1=O (stereo not shown) [Compound I-10, 5-(3,4-difluorophenyl)-5-[(3-methyl-2-oxopyridin-1(2H)-yl)methyl] imidazolidine-2,4-dione]
inhibition in vivo at 10000 µg/mL [1]: 46%
IC50 (human MMP-9): > 100 µM
IC50 (human MMP-14): 30 µM
IC50 (human MMP-1): > 100 µM

COc1ccc(Cl)cc1C1(Cn2cccc(C)c2=O)NC(=O)NC1=O (stereo not shown) [Compound I-27, 5-(5-chloro-2-methoxyphenyl)-5-[(3-methyl-2-oxopyridin-1(2H)-yl)methyl]imidazolidine-2,4-dione]
IC50 (human MMP-9): > 100 µM
IC50 (human MMP-14): 11 µM
IC50 (human MMP-1): > 100 µM

Cc1cccn(CC2(c3ccc(Cc4ccccc4)cc3)NC(=O)NC2=O)c1=O (stereo not shown) [Compound I-40, 5-(4-benzylphenyl)-5-[(3-methyl-2-oxopyridin-1(2H)-yl)methyl]imidazolidine-2,4-dione]
inhibition in vivo at 10000 µg/mL [1]: 63%
IC50 (human MMP-9): > 100 µM
IC50 (human MMP-14): 22 µM
IC50 (human MMP-1): > 100 µM

Cc1cccn(CC2(c3ccc(Cc4ccc(F)cc4)cc3)NC(=O)NC2=O)c1=O (stereo not shown) [Compound I-41, 5-[4-(4-fluorobenzyl)phenyl]-5-[(3-methyl-2-oxopyridin-1(2H)-yl)methyl] imidazolidine-2,4-dione]
inhibition in vivo at 10000 µg/mL [1]: 51%
IC50 (human MMP-9): > 100 µM
IC50 (human MMP-14): 21 µM
IC50 (human MMP-1): 93 µM

Cc1cccn(CC2(c3cccc(-c4cccnc4)c3)NC(=O)NC2=O)c1=O (stereo not shown) [Compound I-62]
inhibition in vivo at 10000 µg/mL [1]: 47%
IC50 (human MMP-9): 67 µM
IC50 (human MMP-14): 22 µM
IC50 (human MMP-1): > 100 µM

Cc1cccn(CC2(c3ccc(OCc4ccccc4)cc3)NC(=O)NC2=O)c1=O (stereo not shown) [Compound I-64]
inhibition in vivo at 10000 µg/mL [1]: 50%
IC50 (human MMP-9): > 100 µM
IC50 (human MMP-14): 6 µM
IC50 (human MMP-1): > 100 µM

Cc1cccn(CC2(c3ccc(Oc4ccccc4F)cc3)NC(=O)NC2=O)c1=O (stereo not shown) [Compound I-86]
inhibition in vivo at 10000 µg/mL [1]: 68%
IC50 (human MMP-9): > 100 µM
IC50 (human MMP-14): 23 µM
IC50 (human MMP-1): > 100 µM
